Reference: patent publication US20230227484A1, “PYRIMIDINE COMPOUND AS AXL INHIBITOR” (NANJING CHIA TAI TIANQING PHARMACEUTICAL CO., LTD., priority 2020, published 2023)

Assays:
AXL kinase = biological target: T1, AXL kinase (Homo sapiens, UniProt P30530); assay: Inhibitory activity of compound against AXL kinase (HTRF KinEASE); type: biochemical; settings: AXL enzyme (Carna, 08-107), ATP 15 μM; "<" means below detection limit of the test
T1 construct: purchased Carna 08-107
T1 sequence (P30530 473-894 limits assumed): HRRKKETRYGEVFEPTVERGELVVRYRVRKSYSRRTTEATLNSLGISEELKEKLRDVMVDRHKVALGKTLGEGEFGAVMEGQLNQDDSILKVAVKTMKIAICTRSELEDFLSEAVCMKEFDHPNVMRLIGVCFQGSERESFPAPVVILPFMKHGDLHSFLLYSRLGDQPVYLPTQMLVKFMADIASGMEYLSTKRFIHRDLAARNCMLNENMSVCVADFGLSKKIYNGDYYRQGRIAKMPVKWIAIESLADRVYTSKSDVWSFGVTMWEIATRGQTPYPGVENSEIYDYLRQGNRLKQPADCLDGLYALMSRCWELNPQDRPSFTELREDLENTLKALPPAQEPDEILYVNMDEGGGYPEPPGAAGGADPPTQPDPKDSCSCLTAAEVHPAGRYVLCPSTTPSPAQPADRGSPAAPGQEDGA
How it was run: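 AXL enzyme (final 0.016 ng/uL) was preincubated with compound (8 concentrations from 1 μM, ½ log steps) for 15 min at room temperature, then reacted with TK Substrate 3-biotin (final 1) and ATP (final 15 μM) for 45 min at 25° C. Phosphorylation was read by HTRF (TK antibody-cryptate, streptavidin-XL665, 1 h); IC50 from variable-slope dose-response fit.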

[1] = tested on: MV-4-11 (human myeloid monocytic leukemia cell line); assay: Proliferation inhibition activity of compounds to MV-4-11 cells (CellTiter-Glo); type: cell-based; settings: MV4-11 cells, 72 h dosing
Experimental: MV-4-11 (human myeloid monocytic leukemia cell line, culture medium: JIMDM+10% fetal bovine serum) is purchased from Cobioer Biosciences Co., Ltd and cultured in a 5% C02 incubator at 37° C. The cells in a logarithmic growth phase are plated in a 96-well plate at cell densities of 8000 cells/well, 6000 cells/well, 2000 cells/well, 2000 cells/well and 3000 cells/well, and a blank control group is set at the same time.
A compound to be tested and the positive drug are dissolved in dimethyl sulfoxide to prepare a 10 mM stock solution, which is then stored in −80° C. refrigerator for long-time storage. After the cells are plated for 24 h, the 10 mM compound stock solution is diluted with dimethyl sulfoxide to obtain a working solution having a 200-fold concentration (the highest concentration is 200 or 2000 μM, a 3-fold gradient, a total of 10 concentrations), and 3 μL of the working solution of each concentration is added to 197 μL of complete medium, and diluted into a working solution of 3-fold concentration. 50 μL of the working solution is then taken and added to a 100 μL cell culture medium (a final concentration of dimethyl sulfoxide is 0.5%, v/v), and two complex holes are set for each concentration. After 72 h of dosing treatment, 50 μl of CellTiter-Glo® (purchased from Promega) is added to each well. Fluorescence signals are measured on Envision (PerkinElmer) according to an operating procedure of the specification. GraphPad Prism 5 software log(inhibitor) vs. response-Variable slope is used to fit a dose-response curve, so as to obtain the IC50 value of the compound to the inhibition of cell-proliferation. The calculation formulation of the inhibition rate is as follows: […]
wherein: signal value of subject: a mean fluorescence signal of cell+medium+compound group; signal value of blank group: a mean fluorescence signal of medium group (containing 0.5% DMSO); signal value of negative control group: a mean fluorescence signal of cell+medium group (containing 0.5% DMSO).

Row | SMILES | IC50 (AXL kinase) [nM] | IC50 [1] [nM]
1 | CP(C)(=O)c1cc(F)c(Cl)cc1Nc1nc(Nc2ccc3c(c2)CC[C@@H](N2CCCC2)CC3)ncc1Cl [Example 118, (S)-(4-chloro-2-((5-chloro-2-((7-(pyrrolidin-1-yl)-6,7,8,9-tetrahydro-5H-benzoannulen-2-yl)amino)pyrimidin-4-yl)amino)-5-fluorophenyl)dimethyl phosphine oxide] | 5.45 | 30.3
2 | CNC(=O)c1cc(OC)ccc1Nc1nc(Nc2ccc3c(c2)CC[C@@H](N2CCCC2)CC3)ncc1Cl [Example 37, (S)-2-((5-chloro-2-(((7-(pyrrolidin-1-yl)-6,7,8,9-tetrahydro-5H-benzo[7]annulen-2-yl)amino))pyrimidin-4-yl)amino)-5-methoxyl-N-methylbenzamide] | 0.18 | 3.39
3 | CNC(=O)c1cc(C#N)ccc1Nc1nc(Nc2ccc3c(c2)CC[C@@H](N2CCCC2)CC3)ncc1Cl [Example 34, (S)-2-((5-chloro-2-((7-(pyrrolidin-1-yl)-6,7,8,9-tetrahydro-5H-benzo[7]annulen-2-yl)amino)pyrimidin-4-yl)amino)-5-cyano-N-methylbenzamide] | 1.27 | 6.16
4 | CNC(=O)c1ccccc1Nc1nc(Nc2ccc3c(c2)CCN(C2CCOCC2)CC3)ncc1Cl [Example 31, 2-((5-chloro-2-((3-(tetrahydro-2H-pyran-4-yl)-2,3,4,5-tetrahydro-1H-benzo[d]aza-7-yl)amino)pyrimidin-4-yl)amino)-N-methylbenzamide] | 0.8 | 1.46
5 | CC(C)(O)c1ccc(Nc2nc(Nc3ccc4c(c3)CC[C@@H](N3CCCC3)CC4)ncc2Cl)c(P(C)(C)=O)c1 [Example 138] | 5.29 | 41.3
6 | CN1Cc2cccc(Nc3nc(Nc4ccc5c(c4)CCN(C4CCOCC4)CC5)ncc3Cl)c2C1=O [Example 49, 7-((5-chloro-2-((3-(tetrahydro-2H-pyran-4-yl)-2,3,4,5-tetrahydro-1H-benzo[d]aza-7-yl)amino)pyrimidin-4-yl)amino)-2-methylisoindolin-1-one] | 9.85 | 8.3
7 | COCc1ccc(Nc2nc(Nc3ccc4c(c3)CCC(N3CC5CC3C5)CC4)ncc2Cl)c(P(C)(C)=O)c1 (single isomer, unassigned) [Example 116 Isomer 116-1, (2-((2-((7-(2-azabicyclo[2.1.1]hexan-2-yl)-6,7,8,9-tetrahydro-5H-benzo[7]annulen-2-yl)amino)-5-chloropyrimidin-4-yl)amino)-5-(methoxymethyl)phenyl)dimethyl phosphine oxide] | 4.94 | 10.1
8 | Cc1c(F)ccc(Nc2nc(Nc3ccc4c(c3)CC[C@@H](N3CCCC3)CC4)ncc2Cl)c1P(C)(C)=O [Example 135, (S)-(6-((5-chloro-2-((7-(pyrrolidin-1-yl)-6,7,8,9-tetrahydro-5H-benzo[7]annulen-2-yl)amino)pyrimidin-4-yl)amino)-3-fluoro-2-methylphenyl)dimethyl phosphine oxide] | 1.35 | 4.23
9 | CNC(=O)c1ccccc1Nc1nc(Nc2ccc3c(c2)CCN(C2CCCC2)CC3)ncc1Cl [Example 32, 2-((5-chloro-2-((3-cyclopentyl-2,3,4,5-tetrahydro-1H-benzo(d)aza-7-yl)amino)pyrimidine-4-yl)amino)-N-methylbenzamide] | 0.75 | 1.98
10 | NC(=O)c1cc(F)ccc1Nc1nc(Nc2ccc3c(c2)CC[C@@H](N2CCCC2)CC3)ncc1Cl [Example 16, (S)-2-((5-chloro-2-((7-(pyrrolidin-1-yl)-6,7,8,9-tetrahydro-5H-benzo[7]annulen-2-yl)amino)pyrimidin-4-yl)amino)-5-fluorobenzamide] | 0.12 | 0.97

More lines, now with the values ahead:

Row | IC50 (AXL kinase) [nM] | IC50 [1] [nM] | SMILES
11 | 2.38 | 7.1 | CP(C)(=O)c1cc(O)ccc1Nc1nc(Nc2ccc3c(c2)CC[C@@H](N2CCCC2)CC3)ncc1Cl [Example 61, (S)-(2-((5-chloro-2-((7-(pyrrolidin-1-yl)-6,7,8,9-tetrahydro-5H-benzo[7]annulen-2-yl)amino)pyrimidin-4-yl)amino)-5-hydroxyphenyl)dimethyl phosphine oxide]
12 | 0.72 | 4.93 | Clc1cnc(Nc2ccc3c(c2)CC[C@@H](N2CCCC2)CC3)nc1Nc1ccccc1CN1CCOCC1 [Example 40, (S)-5-chloro-N^4-(2-(morpholinmethyl)phenyl)-N^2-(7-(pyrrolidin-1-yl)-6,7,8,9-tetrahydro-5H-benzo[7]annulen-2-yl)pyrimidine-2,4-diamine]
13 | < 0.11 | 3.38 | O=C(c1ccccc1Nc1nc(Nc2ccc3c(c2)CC[C@@H](N2CCCC2)CC3)ncc1Cl)N1CCCC1 [Example 6, (S)-(2-((5-chloro-2-((7-(pyrrolidin-1-yl)-6,7,8,9-tetrahydro-5H-benzo[7]annulen-2-yl)amino)pyrimidin-4-yl)amino)phenyl)(pyrrolidin-1-yl)methanone]
14 | < 0.11 | 0.64 | NC(=O)c1ccccc1Nc1nc(Nc2ccc3c(c2)CC[C@@H](N2CCCC2)CC3)ncc1Cl [Example 13, (S)-2-((5-chloro-2-((7-(pyrrolidin-1-yl)-6,7,8,9-tetrahydro-5H-benzo[7]annulen-2-yl)amino)pyrimidin-4-yl)amino)benzamide]
15 | < 0.11 | 6.89 | O=S(=O)(NC1CC1)c1ccccc1Nc1nc(Nc2ccc3c(c2)CC[C@@H](N2CCCC2)CC3)ncc1Cl [Example 24, (S)-2-((5-chloro-2-((7-(pyrrolidin-1-yl)-6,7,8,9-tetrahydro-5H-benzo[7]annulen-2-yl)amino)pyrimidin-4-yl)amino)-N-cyclopropyl benzenesulfonamide]
16 | 2.59 | 6.4 | O=C(NC1CCOC1)c1ccccc1Nc1nc(Nc2ccc3c(c2)CC[C@@H](N2CCCC2)CC3)ncc1Cl (stereo partly shown) [Example 39]
17 | 0.62 | 3.23 | Clc1cnc(Nc2ccc3c(c2)CC[C@@H](N2CCCC2)CC3)nc1Nc1ccccc1-c1ncn[nH]1 [Example 25, (S)—N^4-(2-(1H-1,2,4-triazol-5-yl)phenyl)-5-chloro-N^2-(7-(pyrrolidin-1-yl)-6,7,8,9-tetrahydro-5H-benzo[7]annulen-2-yl)pyrimidine-2,4-diamine]
18 | 0.34 | 3.23 | O=C1NCc2cccc(Nc3nc(Nc4ccc5c(c4)CC[C@@H](N4CCCC4)CC5)ncc3Cl)c21 [Example 29, (S)-7-((5-chloro-2-(((7-(pyrrolidin-1-yl)-6,7,8,9-tetrahydro-5H-benzo[7]annulen-2-yl)amino))pyrimidin-4-yl)amino)isoindolin-1-one]
19 | 0.33 | 6.83 | CN(C)S(=O)(=O)c1ccccc1Nc1nc(Nc2ccc3c(c2)CC[C@@H](N2CCCC2)CC3)ncc1Cl [Example 1, (S)-2-((5-chloro-2-((7-(pyrrolidin-1-yl)-6,7,8,9-tetrahydro-5H-benzo[7]annulen-2-yl)amino)pyrimidin-4-yl)amino)-N,N-dimethyl benzenesulfonamide]
20 | 2.08 | 4.28 | O=S(=O)(Nc1ccccc1Nc1nc(Nc2ccc3c(c2)CC[C@@H](N2CCCC2)CC3)ncc1Cl)C1CC1 [Example 41, (S)—N-(2-((5-chloro-2-((7-(pyrrolidin-1-yl)-6,7,8,9-tetrahydro-5H-benzo[7]annulen-2-yl)amino)pyrimidin-4-yl)amino)phenyl)cyclopropanesulfonamide]
